Patent publication US20210322396A1, “COMPOSITIONS WITH SYNERGISTIC PERMEATION ENHANCERS FOR DRUG DELIVERY” (Children's Medical Center Corporation, priority 2018, published 2021)
Where “and” joins values, the source holds several entries; their conditions need not be identical. Equal values may be shown once. Where a name gives a salt, the structure may show the parent alone. Read-outs that look alike come from different tables or passages of the source.

What was measured:
physchem = conditions: water
[1] = Concentration-response curve fitting and isobolographic analysis of CPEs on VCIP48; type: in vitro ADME, chinchilla
sodium current = conditions: read-out: KI, inhibition of sodium current, cited from earlier work
action potentials = conditions: read-out: median inhibitory concentration, amplitudes of action potentials, cited from earlier work
H. influenza = conditions: cited from earlier work
S. pneumoniae = conditions: cited from earlier work
[2] = three-parameter hyperbolic fit of CPE concentration-VCIP48 curve

CCCCN1CCCCC1C(=O)Nc1c(C)cccc1C (stereo not drawn) [BUP, bupivacaine hydrochloride]
solubility (physchem): ≥ 20 mg/mL
soluble concentration (in 12%[P407-PBP] solution, weight by volume): up to 4%
effect of pH on solubility in water (pH of the formulation tuned in the range of 3 to 9): not affected
Emax relative to that of LIM [1]: 9.76%
Emax relative to that of SDS [1]: 6.15%
CPE concentration at which the permeation enhancement effect plateaued ([1]; Cip permeation, CPPB): ~1%
concentration required to achieve VCIP48=0.22 mg (equivalent dose) ([1]; single CPE in CPPB): infinite
concentration required to achieve VCIP48=0.24 mg (equivalent dose) ([1]; single CPE in CPPB): infinite
concentration required to achieve a VCIP48 of 0.4 mg (equivalent dose) ([1]; single CPE in CPPB): infinite
Emax (maximal VCIP48), derived from Equation (1) [1, 2]: 0.04 mg
p (Hill coefficient) [1, 2]: 2.75

CCCCN1CCCCC1C(=O)Nc1c(C)cccc1C (stereo not drawn) [BUP-fb, bupivacaine free base]
solubility limit (in pure LIM): ~10%

C=C(C)[C@H]1CC=C(C)CC1 [LIM, limonene]
CPE concentration at which the permeation enhancement effect plateaued [1]: around 4%
Emax (maximal VCIP48), derived from Equation (1) [1]: 0.41 mg
concentration required to achieve VCIP48=0.22 mg (equivalent dose) [1]: ~1.8%
concentration required to achieve a VCIP48 of 0.4 mg (equivalent dose) [1]: ~4%
p (Hill coefficient) [1]: 5.33

CCCCCCCCCCCCOS(=O)(=O)[O-].[Na+] [SDS, Sodium dodecyl sulfate]
Emax (peak VCIP48), derived experimentally ([1]; experimentally determined peak effect, sulfate): 0.4 mg and 0.40 ^b mg
concentration required to achieve VCIP48=0.24 mg (equivalent dose) ([1]; single CPE in CPPB): 10%
p (Hill coefficient) [1, 2]: 0.82 ^
Emax (maximal VCIP48), derived from Equation (1) ([1]; three-parameter hyperbolic fit of CPE concentration-VCIP48 curve, sulfate): 0.65 mg and 0.65 ^a mg

NC1=N[C@H](O)[C@H]2[C@H]3O[C@]4(O)O[C@@H]([C@@H](O)[C@@]2(N1)[C@@H]4O)[C@]3(O)CO [TTX, Tetrodotoxin]
Ki (sodium current): 0.001 to 0.002 µM
IC50 (action potentials): 0.005 to 0.006 µM

CCCCN1CCCCC1C(=O)Nc1c(C)cccc1C (stereo not drawn) [bupivacaine]
Ki (sodium current; in vitro): 25 µM
IC50 (action potentials; in vitro): 180 µM

O=C(O)c1cn(C2CC2)c2cc(N3CCNCC3)c(F)cc2c1=O [ciprofloxacin]
minimum inhibitory concentration (H. influenza): about 4 μg/mL
minimum inhibitory concentration (S. pneumoniae): about 4 μg/mL
